Like-named read-outs stand apart in the source and are kept apart here.
Legend:
human PBMC [1] = test: fibrocyte formation in human PBMC, serum-free medium; type: cell-based; conditions: 5 days; for fibrocyte formation / differentiation: 100 ng/ml sialidase, 10 μg/ml DANA or 1 μg/ml SAP
Procedure: Human peripheral blood was collected from healthy adult volunteers who gave written consent and with specific approval from the Texas A&M University human subjects Institutional Review Board. Peripheral blood mononuclear cells (PBMC) were isolated from blood using Ficoll-Paque Plus (GE Healthcare Biosciences, Piscataway, NJ). Human PBMC were incubated in serum-free medium (FibroLife basal media (LM-0001, Lifeline Cell Technology, Walkersville, MD), supplemented with 10 mM HEPES (Sigma-Aldrich, St. Louis, MO), 1x non-essential amino acids (Sigma-Aldrich), 1 mM sodium pyruvate (Sigma-Aldrich), 2 mM glutamine (Invitrogen, Carlsbad, CA), 100 U/ml penicillin, 100 μg/ml streptomycin (Sigma-Aldrich), and 1x ITS-3 (Sigma-Aldrich) in the presence of absence of 100 ng/ml recombinant human sialidases (Origene, Rockville MD), 10 μg/ml DANA (Calbiochem, San Diego, CA), or 1 μg/ml human SAP (Calbiochem). After 5 days, fibrocytes were counted, and results are presented in FIG. 5.

human PBMC [2] = test: TGF-β1 accumulation by human PBMC (antibody staining and ELISA); type: cell-based
Procedure: To determine if sialidases might cause cells to accumulate intracellular and extracellular TGF-β1, human PBMC were cultured with sialidases in 96 well plates at 5×10^5 cells/ml and 200 μl/well in FibroLife serum-free medium for five days, then air dried. The levels of TGF-β1 in or on the cells was detected by staining with an antibody against TGF-β1. Photomicrographs were analyzed by counting stained cells (FIG. 7B) and quantifying staining intensity using ImageJ (FIG. 7C).
PBMC were cultured in 96 well plates at 5×10^5 cells/ml and 200 μl/well in FibroLife serum-free medium. When the cells were plated, recombinant human sialidases were added to final concentrations of 200 ng/ml, and DANA or oseltamivir were added to 3 μM. After 5 days, culture supernatants were analyzed using a TGF-β1 ELISA kit (R&D Systems).

[3] = test system: mice with bleomycin-induced fibrosis; test: mouse bleomycin model of pulmonary fibrosis; type: in vivo; conditions: day 21
Procedure: The successful aspiration of bleomycin into the lungs was confirmed by listening for a crackling noise heard after the aspiration. Mice were weighed daily, and euthanized using CO2 following NIH guidelines at day 21 after bleomycin aspiration. The experiment was performed in accordance with the recommendations in the Guide for the Care and Use of Laboratory Animals of the National Institutes of Health. The Texas A&M University Animal Use and Care Committee approved the protocol.
The BALs were clarified by centrifugation at 500×g for 10 minutes, and the supernatants were transferred to Eppendorf tubes. The supernatants were flash frozen with liquid nitrogen, and stored at −20° C. until further use.
After collection of BAL fluid, mouse lungs were inflated with prewarmed Optimal Cutting Temperature (OCT) embedding medium (VWR, Radnor, PA) and then embedded in OCT, frozen on dry ice, and then stored at −80° C. 6-micron cryosections of mouse lungs were mounted on Superfrost Plus® microscope slides (VWR). The sections on the slides were allowed to air-dry for 24-48 hours. The slides were then fixed in acetone at room temperature for 20 minutes and air-dried for 10 minutes.
Then, starting 24 hours after bleomycin had been administered, the mice were given daily intraperitoneal injections of 10 mg/kg DANA (Calbiochem) in PBS or 10 mg/kg oseltamivir (Sigma) in PBS. Both inhibitors are quite polar and thus probably remain in the extracellular space. Assuming 2 ml of extracellular space in a 20 gram mouse, these doses would then be ˜3 μM. At day 21, mice were sacrificed and BAL and cryosections of lungs were obtained as described for Example 3. The experiment was performed in accordance with the recommendations in the Guide for the Care and Use of Laboratory Animals of the National Institutes of Health. The Texas A&M University Animal Use and Care Committee approved the protocol.
Treatment of mice with oropharyngeal bleomycin results in an initial inflammation, and then a fibrosis that has begun by day 10 after bleomycin treatment. To determine if sialidase inhibitors decrease fibrosis when treatment starts after the initial inflammation stage and when fibrosis is present, mice were treated with oropharyngeal bleomycin to induce symptoms of pulmonary fibrosis as described above. Then, starting 10 days after bleomycin had been administered, the mice were given daily intraperitoneal injections of 10 mg/kg DANA (Calbiochem) in PBS or 10 mg/kg oseltamivir (Sigma) in PBS. At day 21, mice were sacrificed and BAL and cryosections of lungs were obtained as described above. The experiment was performed in accordance with the recommendations in the Guide for the Care and Use of Laboratory Animals of the National Institutes of Health. The Texas A&M University Animal Use and Care Committee approved the protocol.
To determine if sialidase inhibitors could also reduce TGF-β1 levels in mice, mice were treated with bleomycin or saline, then injected daily with saline, DANA or oseltamivir starting at day 10 after bleomycin treatment, as described in Example 9. The mice were euthanized at day 21 and sections of lung tissue were stained for TGF-β1. Results are presented in FIG. 11A and are representative of results for three mice per group.

human NEU3 = human NEU3 (Homo sapiens (Human), UniProt Q9UQ49); test: human NEU3 sialidase inhibition
Sequence of human NEU3 (Q9UQ49 whole entry): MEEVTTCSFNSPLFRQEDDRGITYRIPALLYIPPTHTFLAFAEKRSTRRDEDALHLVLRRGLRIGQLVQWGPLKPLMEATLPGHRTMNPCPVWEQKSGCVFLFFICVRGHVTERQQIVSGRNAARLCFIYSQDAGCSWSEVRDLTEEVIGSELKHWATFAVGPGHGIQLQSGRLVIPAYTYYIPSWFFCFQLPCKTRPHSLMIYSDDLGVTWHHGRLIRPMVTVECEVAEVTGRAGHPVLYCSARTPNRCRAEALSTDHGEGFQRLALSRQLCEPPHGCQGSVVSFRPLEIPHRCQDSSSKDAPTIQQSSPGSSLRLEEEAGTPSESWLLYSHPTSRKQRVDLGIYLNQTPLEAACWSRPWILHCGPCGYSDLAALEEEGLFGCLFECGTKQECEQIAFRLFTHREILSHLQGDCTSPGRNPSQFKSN
Excerpt: (§1) Enzymatic activity may be defined as inhibited if the rate measured by the Michaelis-Menten equation in an in vitro assay using a substrate with a terminal sialic acid is inhibited by at least 50%. More specifically, a human sialidase inhibitor may be a compound that inhibits the rate of at least one human sialidase by at least 50% as measured by the Michaelis-Menten equation in an in vitro assay using the fluorometric substrate 4MU-NANA [2′-(4-Methylumbelliferyl)-α-D-N-acetylneuraminic acid.
(§2) In general, sialidase activity, including human sialidase activity, may be assessed at 37° C. in the presence of buffers ranging in pH from 3.7 to 7.4. […] Bovine serum albumin (BSA) is added to the buffer at a concentration of 100 ug/ml. Sialidase at a final concentration of 300 ng/ml is then added to the buffer. A sialidase inhibitor is then added to the mixture at a series of final concentrations. The reaction mixture is incubated for 30 minutes to allow the inhibitor to bind the sialidase. The fluorometric substrate 4MU-NANA [2′-(4-Methylumbelliferyl)-α-D-N-acetylneuraminic acid sodium salt hydrate is then added at a final concentration of 200 μM. […] The total volume of each reaction mixture is 0.1 ml. The cleavage of 4MU-NANA is then monitored by fluorescence every 20 minutes for 5 hours with excitation light at 360 nm and the fluorescence emission at 460 nm.

human NEU2 = human NEU2 (Homo sapiens (Human), UniProt Q9Y3R4); test: human NEU2 sialidase inhibition
Sequence of human NEU2 (Q9Y3R4 whole entry): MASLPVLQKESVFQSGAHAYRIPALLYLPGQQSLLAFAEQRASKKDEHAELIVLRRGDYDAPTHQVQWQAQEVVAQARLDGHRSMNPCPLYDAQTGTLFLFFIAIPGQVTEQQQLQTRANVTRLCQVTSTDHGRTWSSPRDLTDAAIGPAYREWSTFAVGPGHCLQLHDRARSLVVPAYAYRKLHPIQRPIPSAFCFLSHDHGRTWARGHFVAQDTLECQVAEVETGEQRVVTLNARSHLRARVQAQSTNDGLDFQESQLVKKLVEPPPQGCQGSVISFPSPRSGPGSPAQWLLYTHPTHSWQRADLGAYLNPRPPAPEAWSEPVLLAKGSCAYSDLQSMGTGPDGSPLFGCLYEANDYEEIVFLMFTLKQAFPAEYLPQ
Excerpt: as §1, §2

human NEU4 = human NEU4 (Homo sapiens (Human), UniProt Q8WWR8); test: human NEU4 sialidase inhibition; conditions: read-out: NEU4 IC50; human NEU4
Sequence of human NEU4 (Q8WWR8 whole entry): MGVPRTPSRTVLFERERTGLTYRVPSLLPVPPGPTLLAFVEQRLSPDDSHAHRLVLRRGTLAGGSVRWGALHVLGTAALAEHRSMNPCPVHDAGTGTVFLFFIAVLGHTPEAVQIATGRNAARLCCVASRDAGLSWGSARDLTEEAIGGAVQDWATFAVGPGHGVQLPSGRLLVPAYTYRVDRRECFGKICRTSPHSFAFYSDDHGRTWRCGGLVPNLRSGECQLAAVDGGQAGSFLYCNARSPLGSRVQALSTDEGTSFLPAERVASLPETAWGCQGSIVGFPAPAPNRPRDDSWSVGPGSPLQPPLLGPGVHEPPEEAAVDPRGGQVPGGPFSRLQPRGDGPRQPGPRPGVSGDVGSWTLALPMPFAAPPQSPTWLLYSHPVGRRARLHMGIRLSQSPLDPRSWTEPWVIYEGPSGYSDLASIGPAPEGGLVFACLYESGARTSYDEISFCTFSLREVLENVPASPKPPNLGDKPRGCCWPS

[4] = test system: human monocytes and lymphocytes; test: sialidase levels in human PBMC cultured with IL-6 (flow cytometry); type: cell-based; conditions: 100 and 1000 pg/ml IL-6; three days
Procedure: To determine the effects of IL-6 on NEU3 production by human PBMC, PBMC were cultured as above in serum-free medium at 10^5 cells/ml with 2 ml/well in 6-well tissue culture plates (VWR) in the presence or absence of recombinant human interleukin-6 (IL-6) (BioLegend). After three days, the medium was carefully removed and the cells were washed with 1 ml of phosphate buffered saline (PBS) at room temperature. The cells were detached with 500 μl of Accutase cell detachment solution (VWR) per well for 6 minutes at 37° C. 1000 μl RPMI medium supplemented as described above with BCS, penicillin, streptomycin and glutamine was added per well to neutralize the Accutase. After pipetting the cell solutions 4 times, the cells were placed in sterile 1.7 ml microtubes (Genesee Scientific, San Diego, CA) and cells were collected by centrifugation at 5000×g for 10 minutes at 4° C. The pelleted cells were washed twice by resuspension with 1000 μl of ice-cold PBS and centrifugation. The cells were resuspended in 200 μl of ice-cold 2% (w/v) paraformaldehyde (EMS, Hatfield, PA), in PBS for 10 minutes on ice for fixation. 1000 μl of ice-cold PBS was added and cells were collected by centrifugation. The cells were resuspended in 200 μl of ice-cold 2% (w/v) bovine serum albumin (BSA) (VWR) in PBS (PBSA), for 10 minutes on ice for blocking. […]

[5] = recombinant human sialidase activity, 4MU-NANA cleavage at pH 6.4 and 7.0; type: biochemical
Procedure: In general, sialidase activity, including human sialidase activity, may be assessed at 37° C. in the presence of buffers ranging in pH from 3.7 to 7.4. Buffers with pH 3.7, 4.0, 4.6, 5.2 and 5.6 are 100 mM sodium acetate buffers. Buffers with pH 5.8, 6.4, 7.0 and 8.0 are based on Phosphate-Buffered Saline (PBS), with addition of 12 N HCl or 1 M NaOH to adjust the pH. Bovine serum albumin (BSA) is added to the buffer at a concentration of 100 ug/ml. Sialidase at a final concentration of 300 ng/ml is then added to the buffer. A sialidase inhibitor is then added to the mixture at a series of final concentrations. The reaction mixture is incubated for 30 minutes to allow the inhibitor to bind the sialidase. The fluorometric substrate 4MU-NANA [2′-(4-Methylumbelliferyl)-α-D-N-acetylneuraminic acid sodium salt hydrate is then added at a final concentration of 200 μM. Control reactions have no added inhibitor. The total volume of each reaction mixture is 0.1 ml. The cleavage of 4MU-NANA is then monitored by fluorescence every 20 minutes for 5 hours with excitation light at 360 nm and the fluorescence emission at 460 nm.
The fluorescence in the absence of sialidases is subtracted from all readings. The fluorescence of known concentrations of 4-methylumbelliferone is used to convert fluorescence to moles of product. […]

[6] = read-out: NEU3 IC50, human NEU3
[7] = read-out: NEU2 IC50, human NEU2

CC(=O)N[C@H]1[C@H]([C@H](O)[C@H](O)CO)OC(C(=O)O)=C[C@@H]1O [Compound 1, N-Acetyl-2,3-dehydro-2-deoxyneuraminic acid, reference compound]
NEU4 potentiation of fibrocyte differentiation (human PBMC [1]; 10 μg/ml DANA with 100 ng/ml NEU4): inhibited the NEU4 potentiation of fibrocyte differentiation | fibrocyte formation / differentiation (human PBMC [1]): inhibited fibrocyte differentiation | effects of NEU2 and NEU3 on extracellular TGF-β1 (human PBMC [2]; inhibitor 3 μM, sialidases 200 ng/ml, 5 days, ELISA): blocked | collagen deposition in the lungs (Sirius red) ([3]; 10 mg/kg daily i.p. starting 24 hours after bleomycin): reduced | collagen deposition in the lungs (Sirius red) ([3]; 10 mg/kg daily i.p. starting at day 10): reduced | TGF-β1 levels in lung tissue (staining) ([3]; daily injection starting at day 10): reduced TGF-β1 levels | IC50 (human NEU3; [6]): 61 µM

[N-]=[N+]=NC[C@@H](O)[C@@H](O)[C@@H]1OC(C(=O)O)=C[C@H](O)[C@H]1NC(=O)CO [Compound 33]
IC50 (human NEU2; [7]): 190 µM

COC[C@@H](O)[C@@H](O)[C@@H]1OC(C(=O)O)=C[C@H](O)[C@H]1NC(C)=O [Compound 35]
IC50 (human NEU2; [7]): 410 µM

CC(=O)N[C@@H]1C(N)C=C(C(=O)O)OC1CNc1ccccc1 (stereo partly drawn) [Compound 45]
IC50 (human NEU2; NEU2 IC50, human NEU2): 100 ± 13 µM | IC50 (human NEU3; NEU3 IC50, human NEU3): 370 ± 80 µM

CC(=O)N[C@H]1C([C@@H](O)[C@@H](O)Cn2cc(OCc3ccccc3)nn2)OC(C(=O)O)=C[C@@H]1O (stereo partly drawn) [Compound 53]
IC50 (human NEU2; [7]): 800 ± 70 µM | IC50 (human NEU3; [6]): 5.5 ± 0.6 µM | IC50 (human NEU4): 1.7 ± 0.2 µM

IL-6: recombinant human interleukin-6 (IL-6) (BioLegend)
levels of NEU3 in human monocytes and lymphocytes [4]: significantly increased

NEU1: recombinant human NEU1 (sialidase 1), human neuraminidase 1
Sialidase activity ([5]; pH 6.4): 12.8 ± 1.3 μmole/min/mg protein | Sialidase activity ([5]; pH 7.0): 7.2 ± 0.9 μmole/min/mg protein | ability of SAP to inhibit fibrocyte formation (human PBMC [1]; 100 ng/ml sialidase with 1 μg/ml SAP): did not potentiate fibrocyte differentiation or counteract SAP | fibrocyte formation / differentiation (human PBMC [1]): did not potentiate fibrocyte differentiation | accumulation of TGF-β1 (human PBMC [2]; recombinant sialidase 200 ng/ml, five days): no significant effect

SAP: human SAP (Calbiochem), serum amyloid protein
fibrocyte formation / differentiation (human PBMC [1]): No fibrocytes were detected
